Experimental data: paper PMC4045308 (Investigational New Drugs, 2013)
“And” between values parts separate entries of the source, which are not always exact repeats. Equal entries are not always repeated. Where two headings read alike, the source gives them in different places. Marks after values point to notes of the source that are not given here.

Columns and labels:
PTCL cell lines = conditions: cited from earlier work
[1] = phase I study: plasma pharmacokinetics; type: in vivo, patients; conditions: for AUC(0-t) / Tmax / half-life: human, plasma, oral; for AUC(0-t): read-out: Geometric mean AUC0–tlast (CV, %); for Tmax: read-out: Median Tmax (range)
Description: PK parameters included: area under the plasma concentration versus time curve, maximum plasma concentration, time to maximum plasma concentration (Tmax), terminal half-life (t1/2), accumulation ratio (Rac), and peak/trough ratio. Secondary endpoints were response rate, duration of response, and evaluation of banked tumor tissue samples for AAK protein expression and gene amplification.
Plasma samples were collected in cycle 1 at various time points on the first day (day 1) and last day (day 7, ECT 7-day schedule; day 14, PIC or ECT 14-day schedules; day 21, PIC 21-day schedule) of treatment. PK parameters were calculated by non-compartmental analysis using WinNonlin software (v5.2.1, Pharsight Corporation, Cary, NC).

AAK [2] = conditions: cell-based assays; cited from earlier work
[3] = phase I study: adverse events (NCI-CTCAE v3.0)
[4] = system: advanced heme-lymphatic malignancies (MM, NHL, CLL); assay: phase I study: antitumor response; type: in vivo, patients
Protocol: Response was evaluated according to the International Working Group criteria for patients with lymphoma, the International Myeloma Working Group uniform response criteria for patients with MM [28], and the International Workshop on CLL guidelines.

[5] = system: aggressive B- and T-cell NHL; conditions: 50 mg BID, cited from earlier work
xenograft MM model = conditions: cited from earlier work
[6] = system: multiple myeloma (MM) cells; conditions: in vitro; cited from earlier work
[7] = phase I study: DLTs and MTD
Protocol: Dosing schedules are summarized in Supplementary Fig. S1 (online only). The PIC formulation starting dose was 25 or 35 mg/day. […] For the ECT formulation, the starting dose was 40 mg/day QD for 14 days followed by 14 days’ rest in 28-day cycles.
If 2 of the first 3–6 patients experienced DLTs at a given dose level, dose escalation was delayed while the available safety/clinical data were assessed and a decision made on how to proceed with a modified dose or schedule. […] The use of myeloid growth factors (G-CSF or GM-CSF) or erythropoiesis-stimulating agents was permitted after the DLT evaluation period was completed (cycle 1) and on a case-by-case basis after cycle 2. Treatment continued for up to 12 months, or until disease progression or unacceptable toxicity, with the possibility of treatment extension beyond 12 months if clinical benefit was evident and toxicities were manageable.

Aurora B kinase = conditions: cell-based assays; cited from earlier work
[8] = cited from earlier work
[9] = twice-daily (BID), 7-day schedule in 21-day cycles, solid tumors; cited from earlier work
AAK [10] = conditions: read-out: inhibition constant (Ki); cited from earlier work
[11] = in vivo
mantle cell lymphoma = conditions: cited from earlier work
[12] = 30 mg, ECT 30 mg BID, 7-day schedule, Day 1, first dose, N 3
[13] = 30 mg, ECT 30 mg BID, 7-day schedule, Day 7, N 3
[14] = 40 mg, ECT 40 mg BID, 7-day schedule, Day 1, first dose, N 9
[15] = 40 mg, ECT 40 mg BID, 7-day schedule, Day 7, N 8
[16] = 50 mg, ECT 50 mg BID, 7-day schedule, Day 7, N 7

Structure (SMILES): COc1cc(Nc2ncc3c(n2)-c2ccc(Cl)cc2C(c2c(F)cccc2OC)=NC3)ccc1C(=O)O [MLN8237, alisertib]
- effect on PTCL cell lines (PTCL cell lines): induces endo-reduplication and apoptosis
- Geometric mean CLss/F (CV, %) ([1]; ECT 30 mg BID, 7-day schedule, Day 7, N 3): 3.7 (0.7) L/h
- Geometric mean CLss/F (CV, %) ([1]; ECT 40 mg BID, 7-day schedule, Day 7, n=7): 4.4 (1.9) ^† L/h
- Geometric mean CLss/F (CV, %) ([1]; ECT 50 mg BID, 7-day schedule, Day 7, N 7): 6.7 (5.6) L/h
- Mean CLss/F ([1]; all formulations, CV 69 %, n = 42): 4.8 L/h
- AUC(0-t) [1, 12]: 5.52 µM·h
- Tmax [1, 12]: 2 h
- AUC(0-t) [1, 13]: 16 µM·h
- Tmax [1, 13]: 2 h
- half-life ([1]; 30 mg, ECT 30 mg BID, 7-day schedule, Day 7, n=1, read-out: Mean t1/2 (sd) (converted)): 13.3 h
- AUC(0-t) [1, 14]: 7.09 µM·h
- Tmax [1, 14]: 2.2 h
- AUC(0-t) [1, 15]: 18.6 µM·h
- Tmax [1, 15]: 2 h
- half-life ([1]; 40 mg, ECT 40 mg BID, 7-day schedule, Day 7, n=4, read-out: Mean t1/2 (sd) (converted)): 19.9 h
- Tmax ([1]; 50 mg, ECT 50 mg BID, 7-day schedule, Day 1, first dose, N 10): 2 h
- AUC(0-t) ([1]; 50 mg, ECT 50 mg BID, 7-day schedule, Day 1, first dose, n=9): 9.73 µM·h
- AUC(0-t) [1, 16]: 17.9 µM·h
- Tmax [1, 16]: 2 h
- half-life ([1]; 50 mg, ECT 50 mg BID, 7-day schedule, Day 7, n=5, read-out: Mean t1/2 (sd) (converted)): 18.4 h
- half-life ([1]; multiple-dose administration, PIC and ECT, read-out: overall mean steady-state t1/2 (terminal half-life) (converted)): ~19 h
- half-life ([1]; multiple-dose administration, PIC and ECT, read-out: steady-state t1/2, range): 10 to 43 h
- patients reporting drug-related AEs ([3]; N = 58): 90%
- grade 3 or higher febrile neutropenia, frequency ([3]; all cohorts): 9%
- grade ≥3 drug-related anemia, patients ([3]; all cohorts, N = 58): 19%
- grade ≥3 drug-related leukopenia, patients ([3]; all cohorts, N = 58): 19%
- grade ≥3 drug-related neutropenia, patients ([3]; all cohorts, N = 58): 45%
- grade ≥3 drug-related thrombocytopenia, patients ([3]; all cohorts, N = 58): 28%
- Alopecia, drug-related AE, All grades ([3]; all doses and schedules): 15 (26) n (%)
- Anemia, drug-related AE, All grades ([3]; all doses and schedules): 19 (33) n (%)
- Anemia, drug-related AE, Grade ≥3 ([3]; all doses and schedules): 11 (19) n (%)
- Decreased WBC count, drug-related AE, All grades ([3]; all doses and schedules): 5 (9) n (%)
- Decreased WBC count, drug-related AE, Grade ≥3 ([3]; all doses and schedules): 3 (5) n (%)
- Diarrhea, drug-related AE, All grades ([3]; all doses and schedules): 20 (34) n (%)
- Diarrhea, drug-related AE, Grade ≥3 ([3]; all doses and schedules): 1 (2) n (%)
- Fatigue, drug-related AE, All grades ([3]; all doses and schedules): 15 (26) n (%)
- Fatigue, drug-related AE, Grade ≥3 ([3]; all doses and schedules): 2 (3) n (%)
- Febrile neutropenia, drug-related AE, All grades ([3]; all doses and schedules): 5 (9) n (%)
- Febrile neutropenia, drug-related AE, Grade ≥3 ([3]; all doses and schedules): 5 (9) n (%)
- Leukopenia, drug-related AE, All grades ([3]; all doses and schedules): 13 (22) n (%)
- Leukopenia, drug-related AE, Grade ≥3 ([3]; all doses and schedules): 11 (19) n (%)
- Lymphopenia, drug-related AE, All grades ([3]; all doses and schedules): 8 (14) n (%)
- Lymphopenia, drug-related AE, Grade ≥3 ([3]; all doses and schedules): 4 (7) n (%)
- Nausea, drug-related AE, All grades ([3]; all doses and schedules): 12 (21) n (%)
- Neutropenia, drug-related AE, All grades ([3]; all doses and schedules): 33 (57) n (%)
- Neutropenia, drug-related AE, Grade ≥3 ([3]; all doses and schedules): 26 (45) n (%)
- Somnolence, drug-related AE, All grades ([3]; all doses and schedules): 6 (10) n (%)
- Stomatitis, drug-related AE, All grades ([3]; all doses and schedules): 7 (12) n (%)
- Stomatitis, drug-related AE, Grade ≥3 ([3]; all doses and schedules): 1 (2) n (%)
- Thrombocytopenia, drug-related AE, All grades ([3]; all doses and schedules): 24 (41) n (%)
- Thrombocytopenia, drug-related AE, Grade ≥3 ([3]; all doses and schedules): 16 (28) n (%)
- Vomiting, drug-related AE, All grades ([3]; all doses and schedules): 8 (14) n (%)
- On-study deaths ([3]; during treatment or within 30 days of last dose): 6 (10 %) n (%) and 6 (10) n (%)
- discontinued treatment due to drug-related bullous dermatitis ([3]; in vivo): 1 n
- discontinued treatment due to drug-related confusion ([3]; in vivo): 1 n
- discontinued treatment due to drug-related thrombocytopenia ([3]; in vivo): 4 n
- tolerability ([3]; patients with advanced heme-lymphatic malignancies): generally well tolerated
- Any AE resulting in discontinuation ([3]; safety population): 9 (16 %) n (%) and 9 (16) n (%)
- Any drug-related AE ([3]; safety population): 52 (90) n (%)
- Any drug-related grade ≥3 AE ([3]; safety population): 35 (60 %) n (%) and 35 (60) n (%)
- Any treatment-emergent AE ([3]; safety population): 58 (100) n (%)
- Any treatment-emergent grade ≥3 AE ([3]; safety population): 46 (79) n (%)
- Any treatment-emergent serious AE ([3]; safety population): 28 (48) n (%)
- patients achieving partial response (PR) ([4]; 47 response-evaluable patients): 13%
- patients with partial response (PR) ([4]; 47 response-evaluable patients): 6 patients
- patients discontinued due to progressive disease ([4]; N = 58): 64%
- CR ([5]; 48 treated patients): 10%
- PR ([5]; 48 treated patients): 17%
- overall response rate ([5]; 48 treated patients): 27%
- patients achieving SD ([5]; 48 treated patients): 33%
- patients with T-cell lymphoma who had a response [5]: 4/8
- overall survival (xenograft MM model; P = 0.0044): significantly increased
- tumor burden (xenograft MM model; P = 0.007): significantly reduced
- effect on MM cells [6]: mitotic spindle abnormalities, mitotic accumulation, and apoptosis
- MTD ([7]; ECT 7-day schedule, BID): 50 mg
- MTD ([7]; PIC 14-day schedule, QD): 45 mg
- recommended phase II dose ([7]; human, in vivo, 7 days): 50 mg
- aqueous solubility [8]: low
- maximum tolerated dose (MTD) [9]: 50 mg
- Ki (AAK [10]): 0.43 nM
- on-study deaths considered treatment-related [11]: none
- tumor growth (mantle cell lymphoma): inhibit tumor growth
